Results on two substances are retold here after PMC6973020, “Quinoline‐Conjugated Ruthenacarboranes: Toward Hybrid Drugs with a Dual Mode of Action” (Chemmedchem, 2019).

In one assay the test system is A375 human skin melanoma. The assay can be described thus: Crystal violet (CV) cell viability assay, A375. It counts as cell-based. The note with it: 72 h. The text has this: (§1) Thus, care must be taken when comparing their biological activities with those of our previous studies, even with the same cell line, because the covalent vs. non‐covalent combination of drugs might imply different mechanisms of action in the cell.44 Here, we studied the in vitro activity of ruthenacarborane 3, i. e. free acid, and its 8‐hydroxyquinolyl (4) and 4‐{(7‐chloroquinolin‐4‐yl)oxy}butanol‐1‐yl (5) esters, against a panel of cancer cell lines (B16 mouse melanoma, A375 human skin melanoma, MCF‐7 human breast adenocarcinoma, LN229 human glioblastoma, U251 human glioma). Human fibroblast cell line MRC‐5, murine microglial cell line BV‐2 as well as peritoneal exudate cells (Mph), were chosen as models for non‐malignant cells. […] On the other side, we wanted to assess the reproducibility of the viability data, under either controlled (with BSA) or uncontrolled (without BSA) conditions, in two sets of independent assays. […] Cells were exposed to 3–5 for 72 h, after which cell viability was determined via 3‐(4,5‐dimethylthiazol‐2‐yl)‐2,5‐diphenyltetrazolium bromide (MTT) and crystal violet (CV) assays, in parallel (Table 2). Cisplatin was also tested as reference.
(§2) Preparation of drug solutions. […] Stock solution of cisplatin was prepared in DMF (10 mM) immediately before use. A stock solution of BSA in PBS was prepared at 1.28 mM concentration, and stored at 4 °C in the dark. […] Alternatively, 3 or 4 (DMSO stock solution) were added to the BSA solution in PBS, always with a 10 : 1 molar ratio of BSA to ruthenacarborane. The BSA−ruthenacarborane solutions were incubated 0.5–1 h at room temperature, then diluted with cell culture medium to the desired final concentrations. Final concentrations of 3 and 4 were the same as for the BSA‐free formulation. Final DMSO was 0.02–0.5 vol %.
(§3) Colorimetric assays for cellular viability. […] For counting the number of attached (viable) cells, cells were fixed with 4 % (w/v) paraformaldehyde for 10 min at room temperature, and subsequently stained for 15 min with […] crystal violet (CV) solution. Cells were then washed with tap water, dried in air, and the CV dye was dissolved in 33 % (w/v) acetic acid solution. For the detection of mitochondrial respiration, cells were cultivated in MTT staining solution (0.5 mg mL^−1) for approximately 1 h. The dye was then discarded, and the formed formazan (purple) was dissolved in DMSO. The absorbance was measured with an automated microplate reader at λmax 540 nm, with the reference λmax 670 nm. Untreated cells or cells treated only with BSA (control) were also measured, as reference for BSA‐free and BSA‐containing drug formulations, respectively. […] Cell viability is expressed as percentage (%) relative to control (untreated cultures).58 Experiments were run in three independent replicates. […]

Assay [1] deals with LN229 human glioblastoma. Briefly: MTT cell viability assay, LN229. In kind it is cell-based. The following applies: 72 h.
Excerpt: as §1, §2, §3
In general terms: Tetrazolium dyes change colour on reduction, which living cells bring about.

The test system of assay [2] is LN229 human glioblastoma. The assay can be described thus: Crystal violet (CV) cell viability assay, LN229. In kind it is cell-based. The note with it: CV assay, 72 h; read-out: IC50 LN229.
Excerpt: as §1, §2
Colorimetric assays for cellular viability. […] For counting the number of attached (viable) cells, cells were fixed with 4 % (w/v) paraformaldehyde for 10 min at room temperature, and subsequently stained for 15 min with […] crystal violet (CV) solution. Cells were then washed with tap water, dried in air, and the CV dye was dissolved in 33 % (w/v) acetic acid solution. For the detection of mitochondrial respiration, cells were cultivated in MTT staining solution (0.5 mg mL^−1) for approximately 1 h. The dye was then discarded, and the formed formazan (purple) was dissolved in DMSO. The absorbance was measured with an automated microplate reader at λmax 540 nm, with the reference λmax 670 nm. Untreated cells or cells treated only with BSA (control) were also measured, as reference for BSA‐free and BSA‐containing drug formulations, respectively. For determination of the role of autophagy specific inhibitors, CQ or 3‐MA, were applied at a concentration of 20 μM and 0.5 mM, respectively, and the cells were stained with CV dye. Cell viability is expressed as percentage (%) relative to control (untreated cultures).58 Experiments were run in three independent replicates. […] Non‐linear regression analyses of the obtained results was done using GraphPad Prism software to calculate IC50 values.
mouse microglial cell line BV‐2 was a kind gift from Dr. Irena Lavrnja, Institute for Biological Research
“Siniša Stanković” (University of Belgrade).

Assay [3] concerns Human fibroblast cell line MRC‐5. The assay can be described thus: MTT cell viability assay, MRC‐5. The following applies: 72 h. In kind it is cell-based.
Excerpt: as §1
(§4) Preparation of drug solutions. […] Stock solution of cisplatin was prepared in DMF (10 mM) immediately before use. A stock solution of BSA in PBS was prepared at 1.28 mM concentration, and stored at 4 °C in the dark. […] Alternatively, 3 or 4 (DMSO stock solution) were added to the BSA solution in PBS, always with a 10 : 1 molar ratio of BSA to ruthenacarborane. […]
(§5) Colorimetric assays for cellular viability. […] The absorbance was measured with an automated microplate reader at λmax 540 nm, with the reference λmax 670 nm. Untreated cells or cells treated only with BSA (control) were also measured, as reference for BSA‐free and BSA‐containing drug formulations, respectively. […] Cell viability is expressed as percentage (%) relative to control (untreated cultures).58 Experiments were run in three independent replicates. […]

Assay [4] has the same test system. Briefly: Crystal violet (CV) cell viability assay, MRC‐5. It counts as cell-based. The following applies: 72 h.
Excerpt: as §1, §4, §5

The subject of the next assay is MCF‐7 cells. Briefly: CFSE staining, flow cytometry, MCF‐7. The following applies: MCF‐7, 20 μM, 72 h. It counts as cell-based, human. As to the method: Flow cytometry. For gaining better insights into the mechanisms of action of the ruthenium complexes, MCF‐7 and LN229 cells incubated with an IC50 dose of 3 or 4, were analyzed via flow cytometry. Several staining protocols were carried out in parallel, in independent experiments: i) AnnV/PI for the detection of apoptotic cell death, ii) AO for the detection of acidic vacuoles, iii) ApoStat for checking caspase activation, iv) CFSE for detecting interference with cellular proliferation, and v) DAPI for the detection of morphological signs of apoptosis. Untreated cells or cells treated only with BSA (control) were also measured, as reference for BSA‐free and BSA‐containing drug formulations, respectively. […] Channels FL1 (green emission), FL2 (orange emission) and/or FL3 (dark red emission) were used for fluorescence detection, according to the specific staining agent. Sideward Scatter (SSC) for MCF‐7 cells treated with 4 or BSA−4 was also analyzed, with respect to the control, for detection of shifts of cell granularity. […]
Staining Protocols for Flow Cytometric Analysis. […] Finally, cells were washed in PBS, resuspended in PBS (or AnnV‐binding buffer for AnnV/PI), and analysed. […] Cells were then washed, trypsinised, dissolved in PBS and analysed by CyFlow® Space Partec using the PartecFloMax® software (Partec GmbH, Münster, Germany). […]

By IC50 is commonly meant the concentration that gives 50% inhibition. “closo ‐[3‐(η^6‐p‐Cymene)‐1‐(quinolin‐8‐yl‐acetate)‐3,1,2‐RuC2B9H10] [Compound 4]”: the IC50 in the assay on A375 human skin melanoma amounted to 14.9 ± 2.1 µM; in the assay on LN229 human glioblastoma [1] it was 42.4 ± 3.9 µM; in the assay on LN229 human glioblastoma [2], 33.4 ± 3.5 µM; in assay [3], 3.9 ± 0.1 µM; in assay [4], 4.9 ± 0.1 µM. Further, the “cellular proliferation (CFSE staining)” value in the assay on MCF‐7 cells was “inhibition of cellular proliferation”.
Regarding “closo‐ [Compound 3, closo‐ [3‐(η^6‐p‐Cymene)‐1‐(CH2COOH)‐3,1,2‐RuC2B9H10]]”, the half-maximal inhibitory concentration (IC50) came to 18.7 ± 1.8 µM with A375 human skin melanoma; 80.1 ± 4 µM in the assay on LN229 human glioblastoma [1]; 80 ± 7.7 µM in the assay with LN229 human glioblastoma [2]; 44.2 ± 1.6 µM in assay [3]; 58.5 ± 0.3 µM in assay [4]. Further, the “cellular proliferation (CFSE staining)” value in the assay on MCF‐7 cells is “inhibition of cellular proliferation”.
